Measurements from patent publication US7563951B2, “Soybean seeds and plants exhibiting natural herbicide resistance” (Natural Genes, Inc., priority 2002, dated 2009).

Test system: soybean seeds
Assay: Seed pre-soak in 2 percent aqueous glyphosate, then planting and observing germination
Type: in vivo, Glycine max L.
Conditions: six hour soak at room temperature, observed three weeks
Text: The identification of soybean germplasm within which naturally-occurring herbicide resistance genes reside involved the screening of thirty-four soybean lines obtained from publicly-available seed stocks. The initial step in the screening was to pre-soak individual batches of seeds representing the thirty-four test lines in a 2 percent aqueous solution of glyphosate at room temperature. The individual batches of seeds were immersed in this 2 percent solution for a period of six hours. […] This screening step was essential to determine how seeds responded to the herbicide. Twelve of the varieties were present as approximately 2,500 seeds. There were approximately 5,000 seeds of the remaining 22 varieties. Each variety was immersed in separate containers to assure variety identification and isolation. The varieties that were tested are identified in Table 1.
After this initial pre-soak, each lot of seeds was labeled and was placed in a flat (36″×18″×9″) containing a soil/peat mixture growth medium, with the mixture being 50 percent top soil (sandy loam) and 50 percent peat moss, that was provided at a depth of 9 inches. […]
Germination and emergence of any seedlings was then observed for the next three weeks. […] Of these five lines, the ‘Dwight’ and ‘Jack’ varieties were chosen for further screening using large quantities of seeds.

In the case of `O=C(O)CNCP(=O)(O)O` [glyphosate, N-(phosphonomethyl)glycine], the “Germination of herbicide-treated soybean seeds” value is reported as “failed to germinate”.
